Data as given in US20110251379A1, “COMPOUNDS USEFUL FOR TREATING NEURODEGENERATIVE DISORDERS” (Satori Pharmaceuticals, Inc., priority 2010, published 2011).
Like-named read-outs stand apart in the source and are kept apart here.

Key:
Type in all cases: cell-based
Aβ-38 = experiment: MSD Human (6E10) Ab 3-PLEX elisa, conditioned media of 2B7 cells: Aβ-38; conditions: Homo sapiens; for IC50: Aβ-38 (superscript a)
Description: (§1) Assays were conducted to determine the ability of a Compound of Formula I to modulate […], and Aβ-38.
(§2) Plates with capture antibodies were blocked for 1-2 hours at room temperature with 150 μL of the manufactures blocking reagent.
(§3) Conditioned Media: • Cultured 2B7 cells in 96 well plate with 250 uL of media per well until confluent; • Prepared serial dilutions of compounds in DMSO at 100× the final desired concentration; • Washed wells with 2B7 cells 1× with 250 uL of media; • Diluted DMSO stocks 1:100 into media: • Added 250 μL of media containing compounds (1% DMSO) to wells with 2B7 cells for 5 hours at 37° C.
(§4) Elisa Sample Prep: • Diluted conditioned media: 1 part media with 1% DMSO and 1 part blocking buffer; • 150 μL of the 250 μL of conditioned media were used.
(§5) […] CURVE SAMPLE PREP: Prepared per manufacturer's protocol (see above) • Seven point standard curve samples were prepared that contained Aβ-42, Aβ-40, and Aβ-38. The highest concentration of Aβ-42 and Aβ-3-38 was 3,000 pg/mL and the highest concentration of Aβ-40 was 10,000 pg/mL. Subsequent serial dilutions were 1:3 and the final composition of each sample was 1 part blocking buffer and 1 part cell medium containing 1% DMSO.
(§6) Overnight Sample Incubation: • Blocked plates are washed 5× with MSD wash buffer with a plate washer • 25 uL of detection antibody and blocker G reagent in MSD blocking solution is added • 25 uL of samples (1 part conditioned media containing 1% DMSO and 1 part MSD blocking buffer) are then added. • plates are incubated overnight at 4 degrees C. or 2 hours at room temp
(§7) Final Wash and Readout: • Wash wells 5× with MSD wash buffer • Added 150 μL 2×MSD read buffer • Read with MSD imager.
(§8) A-Beta peptide levels for each peptide are calculated from the standard curve using the MSD software provided with the MSD 2400 Imager. Percent vehicle values for each compound dosage were then calculated and fit to a 4 parameter curve generating IC50 values.

Aβ-40 = experiment: MSD Human (6E10) Ab 3-PLEX elisa, conditioned media of 2B7 cells: Aβ-40; conditions: for inhibition at 20 µM / IC50: Homo sapiens; for inhibition at 20 µM: Aβ-40, 20 μM
Description: as §1, §2, §3, §4, §5, §6, §7, §8

Aβ-42 = experiment: MSD Human (6E10) Ab 3-PLEX elisa, conditioned media of 2B7 cells: Aβ-42; conditions: for IC50 / inhibition at 20 µM: Homo sapiens; for inhibition at 20 µM: Aβ-42, 20 μM
Description: as §1, §2, §3, §4, §5, §6, §7, §8

[1] = Aβ-42 (superscript c), read-out: 50% reduction value
[2] = Aβ-40 (superscript b), read-out: 50% reduction value
[3] = Aβ-40 (superscript b), read-out: IC50 range
[4] = Aβ-42 (superscript c), read-out: IC50 range

Row | Compound | IC50 (Aβ-38; read-out: 50% reduction value) [nM] | inhibition at 20 µM (Aβ-40) [%] | IC50 (Aβ-42; [1]) [nM] | IC50 (Aβ-38; read-out: IC50 range) [nM] | 50% reduction value (Aβ-40; Aβ-40 (superscript b)) | 50% reduction value (Aβ-42; Aβ-42 (superscript c)) | IC50 (Aβ-40; [2]) [nM] | IC50 (Aβ-40; [3]) [nM] | IC50 (Aβ-42; [4]) [nM] | inhibition at 20 µM (Aβ-42) [%] | inhibition at 20 µM (Aβ-38; Aβ-38, 20 μM) [%]
1 | CO[C@@H](C1C[C@@H](C)[C@H]2C(O1)[C@H](O)[C@@]1(C)C3CC[C@H]4C(C)(C)[C@@H](O)CC[C@@]45C[C@@]35CC[C@]21C)C(C)(C)O (some centres unmarked) | < 1000 | 25 to 75 | < 1000 | – | – | – | – | – | – | – | –
2 | CNC(=O)O[C@H](C(C)C)C1C[C@@H](C)[C@H]2C(O1)[C@H](O)[C@@]1(C)C3CC[C@H]4C(C)(C)[C@@H](O)CC[C@@]45C[C@@]35CC[C@]21C (some centres unmarked) | 1000 to 10000 | – | – | < 1000 | H/I | G/H | – | – | – | – | –
3 | CC(C)[C@@H](OC(=O)N(C)C)C1C[C@@H](C)[C@H]2C(O1)[C@H](O)[C@@]1(C)C3CC[C@H]4C(C)(C)[C@@H](O)CC[C@@]45C[C@@]35CC[C@]21C (some centres unmarked) | < 1000 | – | < 10000 | 1000 to 10000 | – | – | 1000 to 10000 | > 10000 | 1000 to 10000 | – | –
4 | CC(C)C(=O)N1CCO[C@@H](O[C@H]2CC[C@]34C[C@]35CC[C@]3(C)[C@@H]6C(OC([C@H](O)C(C)C)C[C@H]6C)[C@H](O)[C@@]3(C)C5CC[C@H]4C2(C)C)C1 (some centres unmarked) | 1000 to 10000 | – | 1000 to 10000 | 1000 to 10000 | – | – | > 10000 | – | – | – | –
5 | CC(C)C(=O)N1CCO[C@@H](O[C@H]2CC[C@]34C[C@]35CC[C@]3(C)C6C(OC(CN(C)C(=O)N(C)C)C[C@H]6C)[C@H](O)[C@@]3(C)C5CC[C@H]4C2(C)C)C1 (some centres unmarked) | < 10000 | 25 to 75 | > 10000 | 1000 to 10000 | – | – | – | – | – | 25 to 75 | –
6 | CCO[C@@H](C1C[C@@H](C)[C@H]2C(O1)[C@H](O)[C@@]1(C)C3CC[C@H]4C(C)(C)[C@@H](O)CC[C@@]45C[C@@]35CC[C@]21C)C(C)(C)O (some centres unmarked) | < 1000 | 25 to 75 | < 1000 | – | – | – | – | < 1000 | < 1000 | – | 25 to 75
7 | CC(C)C(=O)N1CCO[C@@H](O[C@H]2CC[C@]34C[C@]35CC[C@]3(C)C6C(OC(CN(C)C(N)=O)C[C@H]6C)[C@H](O)[C@@]3(C)C5CC[C@H]4C2(C)C)C1 (some centres unmarked) | 1000 to 10000 | – | 1000 to 10000 | – | – | – | > 10000 | – | – | – | –
8 | CO[C@@H]([C@H]1C[C@@H](C)[C@H]2[C@H](O1)[C@H](O)[C@@]1(C)C3CC[C@H]4C(C)(C)[C@@H](O[C@H]5CN(C6COC6)CCO5)CC[C@@]45C[C@@]35CC[C@]21C)C(C)(C)O (some centres unmarked) | < 1000 | – | < 1000 | – | – | – | 1000 to 10000 | – | – | – | –
9 | CO[C@@H]([C@H]1C[C@@H](C)[C@H]2[C@H](O1)[C@H](OC)[C@@]1(C)C3CC[C@H]4C(C)(C)[C@@H](O[C@H]5CN(C6COC6)CCO5)CC[C@@]45C[C@@]35CC[C@]21C)C(C)(C)O (some centres unmarked) | < 1000 | 25 to 75 | – | – | – | – | – | – | – | 25 to 75 | –
10 | CCO[C@@H]([C@H]1C[C@@H](C)[C@H]2[C@H](O1)[C@H](O)[C@@]1(C)C3CC[C@H]4C(C)(C)[C@@H](O[C@H]5CN(C6COC6)CCO5)CC[C@@]45C[C@@]35CC[C@]21C)C(C)(C)O (some centres unmarked) | < 1000 | – | < 1000 | – | – | – | 1000 to 10000 | – | < 1000 | – | –
11 | CC(=O)OC(C)(C)C1C[C@@H](C)[C@H]2C(O1)[C@H](O)[C@@]1(C)C3CC[C@H]4C(C)(C)[C@@H](O)CC[C@@]45C[C@@]35CC[C@]21C (some centres unmarked) | 1000 to 10000 | – | > 10000 | – | – | – | > 10000 | – | – | – | –
12 | C[C@@H]1CC(COc2ncccn2)OC2C1[C@@]1(C)CC[C@@]34C[C@@]35CC[C@H](O[C@H]3CN(C6COC6)CCO3)C(C)(C)[C@@H]5CCC4[C@]1(C)[C@H]2O (some centres unmarked) | 1000 to 10000 | – | 1000 to 10000 | 1000 to 10000 | – | – | 1000 to 10000 | 1000 to 10000 | 1000 to 10000 | – | –
13 | C[C@@H]1CC(C(O)C(C)(C)C)OC2[C@H]1[C@@]1(C)CC[C@@]34C[C@@]35CC[C@H](O[C@H]3CN(C6COC6)CCO3)C(C)(C)[C@@H]5CCC4[C@]1(C)[C@H]2O (some centres unmarked) | < 1000 | – | 1000 to 10000 | < 1000 | – | – | < 1000 | < 1000 | < 1000 | – | –
14 | C[C@@H]1CC(C(O)C(C)(C)C)OC2[C@H]1[C@@]1(C)CC[C@@]34C[C@@]35CC[C@H](O)C(C)(C)[C@@H]5CCC4[C@]1(C)[C@H]2O (some centres unmarked) | 1000 to 10000 | – | – | – | – | – | > 10000 | – | – | 25 to 75 | –
15 | CC(=O)OC(C(C)C)C1C[C@@H](C)[C@H]2C(O1)[C@H](O)[C@@]1(C)C3CC[C@H]4C(C)(C)[C@@H](O[C@H]5CNCCO5)CC[C@@]45C[C@@]35CC[C@]21C (some centres unmarked) | < 1000 | – | < 1000 | < 1000 | – | – | 1000 to 10000 | 1000 to 10000 | < 1000 | – | –
